Results: patent US20220259235A1, “EGFR Inhibitor, Composition, and Preparation Method Therefor” (BETTA PHARMACEUTICALS CO., LTD, priority 2019, published 2022)

Key:
[1] = molecular target: Ba/F3-L858R/T790M/C797S (Homo sapiens, UniProt P00533, T790M/C797S/L858R, cells depend on it); test: Ba/F3-L858R/T790M/C797S cell proliferation assay (CellTiter Glo, 72 h); type: cell-based; conditions: CTG, numeric values, read-out: BaF3 L858R/T790M/C797S IC50
Experimental: (§1) Cell line: Ba/F3 cells with stable overexpression of Δ19del/T790M/C797S or L858R/T790M/C797S mutant genes, named Ba/F3-Δ19del/T790M/C797S and Ba/F3-L858R/T790M/C797S, and A431 EGFR wild-type cell line.
(§2) RPMI 1640 and 10% FBS and 1% PS; _EM, 10% PBS and 1% PS
(§3) a) Dilute the test compound (20 mM stock solution) to 10 mM with 100% DMSO as the starting concentration, and then serially dilute 3 times with a “9+0” concentration in 96-well dilution plate (Cat #P-05525, Labcyte);
(§4) b) Dilute compound solution thereof to 1:100 in medium to prepare 10-fold working solution;
(§5) a) Centrifuge the growth cells in logarithmic phase at 1000 rpm for 5 minutes, resuspend the cells in culture medium, and then count the cells;
(§6) b) Inoculate the cells into a 96-well cell culture plate with a density of 2000 cells/well;
(§7) a) The compound prepared in Step 2 was added to a cell plate with 15 μL per well at final concentrations of 1000, 333, 111.1, 37, 12.3, 4.1, 1.4, 0.5, 0.2, and 0 nM. The final concentration of DMSO was 0.1%. The blank control well is with medium (0.1% DMSO).
(§8) b) Incubate cells in an incubatorother 72 hours;
(§9) a) Take out the 96-well cell culture plate and add 50 μl CTG reagent (CellTiter Glo kit, promega, Cat #G7573);
(§10) b) Shake the plate for 2 minutes and let cool at room temperature for 10 minutes,
(§11) c) Read luminous signal value with Perkin Elmer reader.
(§12) Analysis of Experimental Data
(§13) The data were analyzed by GraphPad Prism 6.0 software to obtain the fitting curve of compound activity.
(§14) Fining compound IC50 from nonlinear regression equation:
(§15) Y=Min+(Max−Min)/(1+10^((LogIC50−X)*slope));
(§16) X: Logarithm of compound concentration; Y: luminous signal
(§17) As illustrated in examples, IC50 value is within the following range for the compound of the present invention: “A” represents “IC50≤50 nM”; “B” represents “50 nM<IC50<100 nM”.

[2] = molecular target: Ba/F3-Δ19del/T790M/C797S (Homo sapiens, UniProt P00533, T790M/C797S, cells depend on it, form not given); test: Ba/F3-Δ19del/T790M/C797S cell proliferation assay (CellTiter Glo, 72 h); type: cell-based; conditions: CTG, numeric values, read-out: BaF3 Δ19del/T790M/C797S IC50
Ba/F3-Δ19del/T790M/C797S, sequence (P00533 with tags, fused parts or gaps DEL746-750/T790M/C797S, form open): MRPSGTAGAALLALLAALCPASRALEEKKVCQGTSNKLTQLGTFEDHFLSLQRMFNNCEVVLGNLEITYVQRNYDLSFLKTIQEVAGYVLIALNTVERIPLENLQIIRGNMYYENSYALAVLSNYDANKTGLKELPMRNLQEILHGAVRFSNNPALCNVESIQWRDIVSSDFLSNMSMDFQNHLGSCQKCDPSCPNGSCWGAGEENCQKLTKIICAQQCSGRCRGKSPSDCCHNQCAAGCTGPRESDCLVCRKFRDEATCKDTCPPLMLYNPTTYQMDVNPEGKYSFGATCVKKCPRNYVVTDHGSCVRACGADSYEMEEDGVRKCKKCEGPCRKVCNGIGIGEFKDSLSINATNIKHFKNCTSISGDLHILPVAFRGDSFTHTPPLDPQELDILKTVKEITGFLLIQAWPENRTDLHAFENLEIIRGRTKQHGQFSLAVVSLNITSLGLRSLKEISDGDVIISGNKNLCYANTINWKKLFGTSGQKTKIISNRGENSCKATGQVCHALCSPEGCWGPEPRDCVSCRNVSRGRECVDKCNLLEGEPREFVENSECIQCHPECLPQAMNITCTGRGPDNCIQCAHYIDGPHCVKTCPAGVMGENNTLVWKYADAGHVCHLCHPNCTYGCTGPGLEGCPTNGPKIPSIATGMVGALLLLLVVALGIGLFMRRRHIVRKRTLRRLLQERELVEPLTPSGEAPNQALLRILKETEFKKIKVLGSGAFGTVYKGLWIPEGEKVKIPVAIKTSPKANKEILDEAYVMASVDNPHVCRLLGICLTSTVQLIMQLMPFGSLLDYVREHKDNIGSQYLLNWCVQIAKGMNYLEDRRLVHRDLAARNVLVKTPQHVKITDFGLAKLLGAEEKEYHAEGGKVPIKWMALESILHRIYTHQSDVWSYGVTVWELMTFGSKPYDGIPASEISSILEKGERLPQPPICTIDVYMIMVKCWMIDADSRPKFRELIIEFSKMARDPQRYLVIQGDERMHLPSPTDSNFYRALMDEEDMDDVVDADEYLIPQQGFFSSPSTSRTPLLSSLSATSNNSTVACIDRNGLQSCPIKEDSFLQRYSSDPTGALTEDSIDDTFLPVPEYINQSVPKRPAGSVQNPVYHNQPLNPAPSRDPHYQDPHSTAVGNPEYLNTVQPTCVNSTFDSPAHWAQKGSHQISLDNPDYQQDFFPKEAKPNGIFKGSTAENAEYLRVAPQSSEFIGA
Experimental: as §1, §2, §3, §4, §5, §6, §7, §8, §9, §10, §11, §12, §13, §14, §15, §16, §17

[3] = test system: A431 EGFR wild-type cell line; test: A431 EGFR wild-type cell proliferation assay (CellTiter Glo, 72 h); type: cell-based; conditions: Homo sapiens, A-431, CTG, read-out: A431 EGFR WT IC50
Experimental: as §1, §2, §3, §4, §5, §6, §7, §8, §9, §10, §11, §12, §13, §14, §15, §16, §17

[4] = Liver microsomal clearance test, human; type: in vitro ADME; conditions: Human liver microsomes, 0.5 mg/mL, NADPH
Experimental: (§18) Test 3 Liver Microsomal Clearance Test
(§19) 1. Prepare 0.5 mg/mL liver microsome diluent containing K-butter and MgCl2:
(§20) 2.1 Take 356 μL of the liver microsome diluent prepared above and add it to the preset wells of the incubation plate, the number of multiple wells n=1, mark it as the incubation plate.
(§21) 2.2 Take 4 μL of the positive control compound Verapamil (50 μM) and the working solution of the test compound (200 μM) into the above incubation plate containing 356 μL of liver microsome diluent, and mix well (The dilution solvent from the stock solution to the working solution is a mixed solvent of acetonitrile: methanol: water=1:1:2, and the final concentration of DMSO is ≤0.5%),
(§22) 2.3 Place the incubation plate in a 37° C. thermostatic oscillator (at shaking speed of 100 rpm) for pre-incubation with 10 min.
(§23) 2.4 Add 40 μL of 10 mM NADPH (add 40 μL of K-buffer to the wells without NADPH) to each reaction well to start the reaction and start timing.
(§24) 3. Sample collection and treatment:
(§25) 3.1 After adding NADPH to start the reaction, immediately take out 50 μL of the sample and add it to the precipitation plate pre-added with 400 μL of stop solution, and shake on an oscillator at 600 rpm for 5 min at room temperature as a 0 min sample.
(§26) 3.2 At the predetermined time points of 5 min, 15 min and 45 min, take out 50 μL of sample from the incubation plate and add it to the precipitation plate. The subsequent steps were the same as the treatment of 0 min sample. 3.3 After balancing, centrifuge above precipitation plate at 3200 rpm for 10 min at 4° C.
(§27) 3.4 Take 50 μL of the supernatant after centrifugation and add it to pre-added 20% acetonitrile water at appropriate proportion, shake on an oscillator at 600 rpm for 2 min at room temperature, mix well, and put it into the LC-MS/MS sampler for sample injection.
as §12
1. […]

[5] = Liver microsomal clearance test, monkey; type: in vitro ADME; conditions: Monkey liver microsomes, 0.5 mg/mL, NADPH
Experimental: as §18, §19, §20, §21, §22, §23, §24, §25, §26, §27, §12
1. […]

[6] = Liver microsomal clearance test, dog; type: in vitro ADME; conditions: Dog liver microsomes, 0.5 mg/mL, NADPH
Experimental: as §18, §19, §20, §21, §22, §23, §24, §25, §26, §27, §12
1. […]

[7] = Liver microsomal clearance test, rat; type: in vitro ADME; conditions: Rat liver microsomes, 0.5 mg/mL, NADPH
Experimental: as §18, §19, §20, §21, §22, §23, §24, §25, §26, §27, §12
1. […]

[8] = Liver microsomal clearance test, mice; type: in vitro ADME; conditions: Mice liver microsomes, 0.5 mg/mL, NADPH
Experimental: as §18, §19, §20, §21, §22, §23, §24, §25, §26, §27, §12
1. […]

[9] = molecular target: T1, hERG protein (Homo sapiens, UniProt Q12809); test: hERG IC50 test (tracer/membranes fluorescence polarization); type: binding; conditions: hERG membranes and tracer, read-out: IC50 results of hERG protein to compound
T1 construct: purchased
T1 sequence (Q12809 whole entry): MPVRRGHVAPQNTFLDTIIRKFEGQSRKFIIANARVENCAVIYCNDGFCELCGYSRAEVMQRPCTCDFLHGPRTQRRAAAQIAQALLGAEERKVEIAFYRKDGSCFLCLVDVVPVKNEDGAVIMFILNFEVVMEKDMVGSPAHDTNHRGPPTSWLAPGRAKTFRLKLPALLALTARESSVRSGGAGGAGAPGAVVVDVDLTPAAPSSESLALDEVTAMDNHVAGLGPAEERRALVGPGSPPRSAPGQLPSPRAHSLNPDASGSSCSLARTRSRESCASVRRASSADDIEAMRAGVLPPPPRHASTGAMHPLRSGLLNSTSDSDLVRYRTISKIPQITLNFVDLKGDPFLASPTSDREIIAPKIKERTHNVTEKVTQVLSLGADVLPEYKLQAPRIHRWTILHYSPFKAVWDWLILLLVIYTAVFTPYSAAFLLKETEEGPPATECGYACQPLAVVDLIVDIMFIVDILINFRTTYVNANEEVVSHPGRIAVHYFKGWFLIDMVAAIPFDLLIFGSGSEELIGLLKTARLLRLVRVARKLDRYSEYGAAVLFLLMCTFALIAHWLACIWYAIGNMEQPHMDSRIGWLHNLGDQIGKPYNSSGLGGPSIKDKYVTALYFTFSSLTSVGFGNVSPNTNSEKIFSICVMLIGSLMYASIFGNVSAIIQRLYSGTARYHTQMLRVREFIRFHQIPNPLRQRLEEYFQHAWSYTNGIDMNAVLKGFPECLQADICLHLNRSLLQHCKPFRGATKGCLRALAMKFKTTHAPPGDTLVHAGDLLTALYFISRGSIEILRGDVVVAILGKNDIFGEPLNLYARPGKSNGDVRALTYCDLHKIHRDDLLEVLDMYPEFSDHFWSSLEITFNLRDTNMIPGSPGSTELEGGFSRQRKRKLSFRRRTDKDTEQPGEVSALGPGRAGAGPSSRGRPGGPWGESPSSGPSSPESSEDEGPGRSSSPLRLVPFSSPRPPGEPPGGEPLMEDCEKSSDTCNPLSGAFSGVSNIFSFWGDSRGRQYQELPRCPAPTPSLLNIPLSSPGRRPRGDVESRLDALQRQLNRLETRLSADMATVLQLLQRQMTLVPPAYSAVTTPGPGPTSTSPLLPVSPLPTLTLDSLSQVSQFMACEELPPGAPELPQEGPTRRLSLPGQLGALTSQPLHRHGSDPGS
Experimental: 1. Thaw hERG kits (Tracer, E-4031 and Membranes) at room temperature;
2. Add 10 μL of positive compound E-4031 and 10 μL of test compound (10 mM) to 384 well plate (Corning, Art. No. 3658);
3. E-4031 is sequentially 5-fold diluted by pure water (10 concentration points in total), and the test compound is sequentially 5-fold diluted by DMSO (10 concentration points in total).
4. Take 1 μL of all gradient concentrations and add them in parallel to the wells containing 24 μL Assay buffer, and dilute 25 times (take 3 μL of the maximum concentration of E-4031 and add it to 72 μL Assay buffer).
5. Add 10 μL Membranes to another black 384-well plate (Coming, Art.4511).
6. Take 5 μL of 25-fold diluted working solution of positive and test compounds, and add it to above-mentioned plate with 10 μL Membranes, 2 copies at each concentration.
7. Negative control: Add 5 μL Assay buffer to the well with 10 μL Membranes, 8 copies in parallel;
8. Positive control: Add 5 μL E-4031 (120 μM) to the well with 10 μL Membranes, 8 copies in parallel;
9. […]
10. Before measuring the fluorescence polarization, cover the analysis plate to protect the reagents from light and evaporation, and incubate at room temperature (20-25° C.) for 2 hours.
11. Read fluorescence polarization in PerkinElmer EnVision® Multilabel after incubation; […]

Ba/F3-L858R/T790M/C797S, sequence (P00533 whole entry T790M/C797S/L858R): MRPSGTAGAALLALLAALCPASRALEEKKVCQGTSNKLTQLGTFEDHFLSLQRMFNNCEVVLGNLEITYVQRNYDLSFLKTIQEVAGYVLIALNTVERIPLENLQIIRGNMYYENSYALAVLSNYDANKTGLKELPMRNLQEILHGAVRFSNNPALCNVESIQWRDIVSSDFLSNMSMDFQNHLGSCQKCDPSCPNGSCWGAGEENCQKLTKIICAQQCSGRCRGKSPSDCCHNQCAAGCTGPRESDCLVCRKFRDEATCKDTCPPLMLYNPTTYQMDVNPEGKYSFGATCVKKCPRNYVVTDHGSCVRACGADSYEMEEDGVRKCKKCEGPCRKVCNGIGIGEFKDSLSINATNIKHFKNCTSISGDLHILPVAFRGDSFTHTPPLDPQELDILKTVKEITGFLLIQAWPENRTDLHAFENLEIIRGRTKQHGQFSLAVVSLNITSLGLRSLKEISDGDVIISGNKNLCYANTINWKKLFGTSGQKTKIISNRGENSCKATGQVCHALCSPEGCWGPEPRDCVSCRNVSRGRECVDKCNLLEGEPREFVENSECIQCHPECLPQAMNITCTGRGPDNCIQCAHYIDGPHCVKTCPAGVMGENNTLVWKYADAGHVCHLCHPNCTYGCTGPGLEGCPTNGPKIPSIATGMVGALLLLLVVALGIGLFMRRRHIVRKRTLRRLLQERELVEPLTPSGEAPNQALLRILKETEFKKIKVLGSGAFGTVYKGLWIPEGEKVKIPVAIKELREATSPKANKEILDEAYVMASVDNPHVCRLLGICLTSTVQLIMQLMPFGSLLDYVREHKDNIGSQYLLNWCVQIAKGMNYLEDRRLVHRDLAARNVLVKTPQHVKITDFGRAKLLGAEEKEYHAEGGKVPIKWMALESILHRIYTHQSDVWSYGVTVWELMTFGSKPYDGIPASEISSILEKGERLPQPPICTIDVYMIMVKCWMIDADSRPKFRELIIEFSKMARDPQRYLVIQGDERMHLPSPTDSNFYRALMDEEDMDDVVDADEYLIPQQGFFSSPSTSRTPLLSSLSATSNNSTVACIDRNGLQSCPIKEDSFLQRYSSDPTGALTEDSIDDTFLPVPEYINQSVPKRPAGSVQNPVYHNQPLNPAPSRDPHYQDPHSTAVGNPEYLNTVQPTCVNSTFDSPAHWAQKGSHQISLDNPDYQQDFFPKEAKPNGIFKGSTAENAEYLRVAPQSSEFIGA

- GI50 [1]: 16.7 nM
- GI50 [2]: 22 nM
- IC50 [3]: 375 nM
- Instrinsic clearance of liver microsomal protein, CLint [4]: 17.4 μL/min/mg proteins
- Instrinsic clearance of liver microsomal protein, CLint [5]: 65.4 μL/min/mg proteins
- Instrinsic clearance of liver microsomal protein, CLint [6]: 15.6 μL/min/mg proteins
- Instrinsic clearance of liver microsomal protein, CLint [7]: 22 μL/min/mg proteins
- Instrinsic clearance of liver microsomal protein, CLint [8]: 16.4 μL/min/mg proteins
Structure (SMILES): COc1cc(N2CCC(N3CCN(C)CC3)CC2)c(C)cc1Nc1ncc(Br)c(Nc2ccc3nccnc3c2P(C)(C)=O)n1 [A, reference compound]
- IC50 [9]: 13500 nM
